Patent US9573987B2 (priority 2011, dated 2017)
Several values for one entry are separate records, joined by “and”; a condition that tells them apart may be missing. Equal values may be shown once. Each block holds one molecule with its values, some of them ahead of it. *1 amine or outer side, *2 acyl side, *3 side chain or, on linkers, in order; H or OH if unused. Where a SMILES comes first, the peptide text is derived from it. Side-chain parts run from the residue outwards. [ ]: non-standard residue; d: D form. Phe(4-NH2) = Nc1ccc(C[C@H](N)C(=O)O)cc1; d(εLys) = N[C@H](CCCCN[*:1])C(=O)[*:2]; NMeA = CN[C@@H](C)C(=O)O; Sar = CNCC(=O)O

Columns and labels:
IGF-1 receptor [1] = molecular target: T1, IGF-1 receptor (Homo sapiens, UniProt P08069); assay: IGF-1 receptor binding assay (competition, scintillation proximity); set-up: expressed in transfected cells; plasma membrane fragments; settings: Table 9
IGF-1 receptor [2] = molecular target: T1, IGF-1 receptor; assay: IGF-1 receptor phosphorylation assay, receptor transfected HEK293 cells; assay type: cell-based; set-up: expressed in transfected cells; host or cells: HEK293; settings: Table 10
Protocol: (§1) Color development was stopped 5 min later by adding 0.05 ml 1 N HCl. Absorbance at 450 nm was measured on Titertek Multiscan MCC340 (ThermoFisher, Pittsburgh, Pa.).

insulin receptor [3] = molecular target: T2, insulin receptor (Homo sapiens, UniProt P06213); assay: Insulin receptor phosphorylation assay, receptor transfected HEK293 cells; assay type: cell-based; set-up: expressed in transfected cells; host or cells: HEK293; settings: for in vitro phosphorylation activity at the insulin receptor (result in words): FIGS. 22A, 22B
Protocol: as §1

insulin receptor [4] = molecular target: T2, insulin receptor; assay: Insulin receptor binding assay (competition, scintillation proximity); set-up: expressed in transfected cells; plasma membrane fragments
[5] = Dipeptide half life on IGF1 (p-NH2-F)A19 analogs in PBS; assay type: physicochemical; settings: buffer
Protocol: Accordingly, the IGF1A chain alone was determined to be a good model for the study of pro-drug half life on IGF1 B:A (Y^B16L^B17) analog peptides. […] For simplicity, prodrug half lives were determined using only the IGF1 A chain in the absence of the B chain. The half lives of each propeptide was determined as described in Example 5.

T1 sequence (P08069 31-736 limits assumed): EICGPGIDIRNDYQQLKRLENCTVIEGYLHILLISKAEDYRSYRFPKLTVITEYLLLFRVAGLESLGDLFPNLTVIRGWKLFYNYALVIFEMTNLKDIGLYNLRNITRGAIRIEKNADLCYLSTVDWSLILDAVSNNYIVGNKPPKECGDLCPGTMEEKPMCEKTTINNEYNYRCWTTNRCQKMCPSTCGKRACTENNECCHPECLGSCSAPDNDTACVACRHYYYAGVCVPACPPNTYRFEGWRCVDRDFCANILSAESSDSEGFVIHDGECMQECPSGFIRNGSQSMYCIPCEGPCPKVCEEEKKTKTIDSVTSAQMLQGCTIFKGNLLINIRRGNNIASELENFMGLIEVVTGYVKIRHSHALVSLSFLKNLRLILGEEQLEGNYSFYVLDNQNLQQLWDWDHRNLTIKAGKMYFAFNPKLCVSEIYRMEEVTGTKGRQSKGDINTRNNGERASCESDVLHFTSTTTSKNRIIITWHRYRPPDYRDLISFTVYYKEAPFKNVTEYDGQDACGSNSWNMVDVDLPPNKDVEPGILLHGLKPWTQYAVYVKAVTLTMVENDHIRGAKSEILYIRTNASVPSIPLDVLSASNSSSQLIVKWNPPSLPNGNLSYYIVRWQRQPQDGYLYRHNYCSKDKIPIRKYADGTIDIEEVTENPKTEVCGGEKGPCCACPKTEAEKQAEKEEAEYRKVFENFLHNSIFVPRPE
T1 sequence (P08069 741-1367 partner limits assumed): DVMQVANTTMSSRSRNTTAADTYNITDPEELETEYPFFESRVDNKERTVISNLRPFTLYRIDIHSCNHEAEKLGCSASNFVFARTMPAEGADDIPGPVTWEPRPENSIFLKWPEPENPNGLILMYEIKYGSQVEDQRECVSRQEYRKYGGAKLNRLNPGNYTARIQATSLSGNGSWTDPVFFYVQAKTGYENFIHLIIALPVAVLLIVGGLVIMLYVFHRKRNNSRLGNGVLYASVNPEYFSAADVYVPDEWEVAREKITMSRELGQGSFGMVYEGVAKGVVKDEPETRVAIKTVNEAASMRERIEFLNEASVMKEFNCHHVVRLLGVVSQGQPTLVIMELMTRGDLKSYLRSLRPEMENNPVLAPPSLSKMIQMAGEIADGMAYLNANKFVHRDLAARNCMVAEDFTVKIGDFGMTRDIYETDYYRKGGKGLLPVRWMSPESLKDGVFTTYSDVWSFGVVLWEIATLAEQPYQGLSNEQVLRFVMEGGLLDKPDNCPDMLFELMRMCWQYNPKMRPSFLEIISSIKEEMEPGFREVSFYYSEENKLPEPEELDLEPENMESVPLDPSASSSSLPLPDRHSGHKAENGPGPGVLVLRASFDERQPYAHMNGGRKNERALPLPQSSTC

Molecule: CC[C@H](C)[C@H](NC(=O)CN)C(=O)N[C@H](C(=O)N[C@@H](CC(=O)O)C(=O)N[C@@H](CCC(=O)O)C(=O)N[C@H]1CSSC[C@@H]2NC(=O)[C@H](CO)NC(=O)[C@H](CCCNC(=N)N)NC(=O)[C@H](Cc3ccccc3)NC(=O)[C@H](CSSC[C@H](NC(=O)[C@H](CC(C)C)NC(=O)[C@@H](NC(=O)[C@H](CCC(=O)O)NC(=O)[C@@H]3CCCN3C(=O)CN)[C@@H](C)O)C(=O)NCC(=O)N[C@@H](C)C(=O)N[C@@H](CCC(=O)O)C(=O)N[C@@H](CC(C)C)C(=O)N[C@@H](C(C)C)C(=O)N[C@@H](CC(=O)O)C(=O)N[C@@H](C)C(=O)N[C@@H](CC(C)C)C(=O)N[C@@H](Cc3ccc(O)cc3)C(=O)N[C@@H](CC(C)C)C(=O)N[C@@H](C(C)C)C(=O)N[C@H](C(=O)NCC(=O)N[C@@H](CC(=O)O)C(=O)N[C@@H](CCCNC(=N)N)C(=O)NCC(=O)N[C@@H](Cc3ccccc3)C(=O)N[C@@H](Cc3ccc(O)cc3)C(=O)N[C@@H](Cc3ccccc3)C(=O)N[C@@H](CC(N)=O)C(=O)N[C@@H](CCCCN)C(=O)N3CCC[C@H]3C(=O)N[C@H](C(=O)N[C@@H](CCC(=O)O)C(=O)N[C@@H](CCC(=O)O)C(=O)O)[C@@H](C)O)CSSC[C@@H](C(=O)N[C@@H](C)C(N)=O)NC(=O)[C@H](Cc3ccc(O)cc3)NC(=O)[C@H](CCSC)NC(=O)[C@H](CCC(=O)O)NC(=O)[C@H](CC(C)C)NC(=O)[C@H](CCCNC(=N)N)NC(=O)[C@H](CCCNC(=N)N)NC(=O)[C@H](CC(C)C)NC(=O)[C@H](CC(=O)O)NC2=O)NC1=O)C(C)C [IGF-1 A:B(E10 Y16L17)-E31E3 2B-COOH]
- Ratio (insulin receptor [4]; IGF-1 receptor IC50 over insulin receptor IC50): 14.3
- Insulin Receptor % insulin (in test) (insulin receptor [4]; Table 9): 36.5%
- Insulin Receptor % native insulin activity (0.6 nM) (insulin receptor [4]; Table 9): 50.0%
- IGF-1 Receptor % IGF-1 (in test) (IGF-1 receptor [1]): 3.0%
- EC50 (insulin receptor [3]; Insulin Receptor EC50:, total phosphorylation, Table 10): 7 nM and 8.52 nM
- Insulin Receptor % Insulin (insulin receptor [3]; Table 10): 18.1% and 31.7%

Molecule: CC[C@H](C)[C@H](NC(=O)CN)C(=O)N[C@H](C(=O)N[C@@H](CC(=O)O)C(=O)N[C@@H](CCC(=O)O)C(=O)N[C@@H](C)C(=O)N[C@@H](C)C(=O)N[C@@H](Cc1ccccc1)C(=O)N[C@@H](CCCNC(=N)N)C(=O)N[C@@H](CO)C(=O)N[C@@H](C)C(=O)N[C@@H](CC(=O)O)C(=O)N[C@@H](CC(C)C)C(=O)N[C@@H](CCCNC(=N)N)C(=O)N[C@@H](CCCNC(=N)N)C(=O)N[C@@H](CC(C)C)C(=O)N[C@@H](CCC(=O)O)C(=O)N[C@@H](CCSC)C(=O)N[C@@H](Cc1ccc(NC(=O)CN(C)C(=O)[C@H](N)CCCCNC(C)=O)cc1)C(=O)N[C@@H](C)C(=O)N[C@@H](C)C(N)=O)C(C)C [dK(acetyl) Sar] (H-GIVDEAAFRSADLRRLEM[Phe(4-NH2)]([Sar-d(εLys)-Ac])AA-NH2; N-terminus assumed)
- half-life ([5]; Half Life (hr)): 16.3 h
- half-life ([5]; Half Life (hr) PBS): 17.2 h

B1: DP20 2CTP: two end to end linked CTP peptides as the linking peptide (SEQ ID NO: 75) (protein, listed as Homo sapiens)
chain: GEEEEEKGPEHLCGAHLVDALYLVCGDRGFYSSSSRAPPPSLPSPSRLPGPSDTPILPQKSSSSRAPPPSLPSPSRLPGPSDTPILPQKGIVDECCHRSCDLRRLENYCN
- in vitro phosphorylation activity at the insulin receptor (result in words) (insulin receptor [3]): appears to be active as an insulin agonist

B2: DP20 C^0CTP: native proinsulin C peptide linked to a CTP peptide as linking peptide (SEQ ID NO: 74) (protein, listed as Homo sapiens)
chain: GEEEEEKGPEHLCGAHLVDALYLVCGDRGFYRREAEDLQVGQVELGGGPGAGSLQPLALEGSLQRKSSSSRAPPPSLPSPSRLPGPSDTPILPQKGIVDECCHRSCDLRRLENYCN
- in vitro phosphorylation activity at the insulin receptor (result in words) (insulin receptor [3]): appear to have activity at the insulin receptor

Further lines, results first:

- IGF-1 Receptor % IGF-1 (in test) (IGF-1 receptor [1]): 7.7%
- IGF-1 Receptor % IGF (IGF-1 receptor [2]): 111.538%
- EC50 (IGF-1 receptor [2]; total phosphorylation): 0.78 nM
- Insulin Receptor % Insulin (insulin receptor [3]; Table 10): 1575%
Molecule: CC[C@H](C)[C@H](NC(=O)CN)C(=O)N[C@H](C(=O)N[C@@H](CC(=O)O)C(=O)N[C@@H](CCC(=O)O)C(=O)N[C@H]1CSSC[C@@H]2NC(=O)[C@H](CO)NC(=O)[C@H](CCCNC(=N)N)NC(=O)[C@H](Cc3ccccc3)NC(=O)[C@H](CSSC[C@H](NC(=O)[C@H](CC(C)C)NC(=O)[C@@H](NC(=O)[C@H](CCC(=O)O)NC(=O)[C@@H]3CCCN3C(=O)CN)[C@@H](C)O)C(=O)NCC(=O)N[C@@H](C)C(=O)N[C@@H](CC(=O)O)C(=O)N[C@@H](CC(C)C)C(=O)N[C@@H](C(C)C)C(=O)N[C@@H](CC(=O)O)C(=O)N[C@@H](C)C(=O)N[C@@H](CC(C)C)C(=O)N[C@@H](Cc3ccc(O)cc3)C(=O)N[C@@H](CC(C)C)C(=O)N[C@@H](C(C)C)C(=O)N[C@H](C(=O)NCC(=O)N[C@@H](CC(=O)O)C(=O)N[C@@H](CCCNC(=N)N)C(=O)NCC(=O)N[C@@H](Cc3ccccc3)C(=O)N[C@@H](Cc3ccc(O)cc3)C(N)=O)CSSC[C@@H](C(=O)N[C@@H](C)C(=O)O)NC(=O)[C@H](Cc3ccc(O)cc3)NC(=O)[C@H](CCSC)NC(=O)[C@H](CCC(=O)O)NC(=O)[C@H](CC(C)C)NC(=O)[C@H](CCCNC(=N)N)NC(=O)[C@H](CCCNC(=N)N)NC(=O)[C@H](CC(C)C)NC(=O)[C@H](CC(=O)O)NC2=O)NC1=O)C(C)C [IGF-1 A:B(D10Y16L17) DPI A-COOH]

- half-life ([5]; Half Life (hr)): 35.3 h
- half-life ([5]; Half Life (hr) PBS): 35.3 h
Molecule: CC[C@H](C)[C@H](NC(=O)CN)C(=O)N[C@H](C(=O)N[C@@H](CC(=O)O)C(=O)N[C@@H](CCC(=O)O)C(=O)N[C@@H](C)C(=O)N[C@@H](C)C(=O)N[C@@H](Cc1ccccc1)C(=O)N[C@@H](CCCNC(=N)N)C(=O)N[C@@H](CO)C(=O)N[C@@H](C)C(=O)N[C@@H](CC(=O)O)C(=O)N[C@@H](CC(C)C)C(=O)N[C@@H](CCCNC(=N)N)C(=O)N[C@@H](CCCNC(=N)N)C(=O)N[C@@H](CC(C)C)C(=O)N[C@@H](CCC(=O)O)C(=O)N[C@@H](CCSC)C(=O)N[C@@H](Cc1ccc(NC(=O)[C@H](C)N(C)C(=O)[C@H](N)CCCCNC(C)=O)cc1)C(=O)N[C@@H](C)C(=O)N[C@@H](C)C(N)=O)C(C)C [dK(acetyl) N-methyl Ala] (H-GIVDEAAFRSADLRRLEM[Phe(4-NH2)]([NMeA-d(εLys)-Ac])AA-NH2; N-terminus assumed)

- in vitro phosphorylation activity at the insulin receptor (result in words) (insulin receptor [3]): appears more potent than DP20 C^0CTP
B3: DP20 CTPC^0: CTP peptide linked to native proinsulin C peptide as linking peptide (SEQ ID NO: 73) (protein, listed as Homo sapiens)
chain: GEEEEEKGPEHLCGAHLVDALYLVCGDRGFYSSSSRAPPPSLPSPSRLPGPSDTPILPQKRREAEDLQVGQVELGGGPGAGSLQPLALEGSLQRKGIVDECCHRSCDLRRLENYCN
